Source: the supplement of paper PMC10307832

Columns and labels:
Experiment in all cases: relative viability (nuclei count vs DMSO), 5 days (fraction); higher = more cells survive
BI-2536 + Pemetrexed = compound: CC[C@@H]1C(=O)N(C)c2cnc(Nc3ccc(C(=O)NC4CCN(C)CC4)cc3OC)nc2N1C1CCCC1 [BI-2536] + Nc1nc2[nH]cc(CCc3ccc(C(=O)N[C@@H](CCC(=O)O)C(=O)O)cc3)c2c(=O)[nH]1 [Pemetrexed] (partner 0.2 µM)
Method in brief: (§1)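 Nuclei were stained with Hoechst during a one-step fixation (final 0.05% Triton X-100, 1% formaldehyde, 1 ug/ml Hoechst) carried out 5 days after dosing, then counted on 4× images. The cells, lung cancer lines in 1536-well plates, had been dosed by pin tool the day after seeding with one drug alone or a fixed anchor-drug dose plus five library-drug doses (not always all listed) in √10 steps. Relative viability is the nuclei count in treated wells divided by that in vehicle wells, and each value is the median of duplicate plates.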

BI-2536 + Olaparib = compound: CC[C@@H]1C(=O)N(C)c2cnc(Nc3ccc(C(=O)NC4CCN(C)CC4)cc3OC)nc2N1C1CCCC1 [BI-2536] + O=C(c1cc(Cc2n[nH]c(=O)c3ccccc23)ccc1F)N1CCN(C(=O)C2CC2)CC1 [Olaparib] (partner 8 µM)
Method in brief: as §1

[1] = compound: CC1CC(=O)N(C2=CN=C(N=C2N1C3CCCC3)NC4=C(C=C(C=C4)C(=O)NC5CCN(CC5)C)OC)C [NPK76-II-72-1] + C[C@]1(O)C[C@@H](c2nc(-c3ccc4ccc(-c5ccccc5)nc4c3)c3c(N)nccn32)C1 [Linsitinib] (partner 1 µM)
Method in brief: as §1

BI-2536 + Crizotinib = compound: CC[C@@H]1C(=O)N(C)c2cnc(Nc3ccc(C(=O)NC4CCN(C)CC4)cc3OC)nc2N1C1CCCC1 [BI-2536] + C[C@@H](Oc1cc(-c2cnn(C3CCNCC3)c2)cnc1N)c1c(Cl)ccc(F)c1Cl [Crizotinib] (partner 1 µM)
Method in brief: as §1

| Cell Line | relative viability (BI-2536 + Pemetrexed; first compound 0.01 µM) | relative viability (BI-2536 + Pemetrexed; first compound 0.03162 µM) | relative viability (BI-2536 + Pemetrexed; first compound 0.1 µM) | relative viability (BI-2536 + Pemetrexed; first compound 0.3162 µM) | relative viability (BI-2536 + Pemetrexed; first compound 1 µM) | relative viability (BI-2536 + Olaparib; first compound 0.01 µM) | relative viability (BI-2536 + Olaparib; first compound 0.03162 µM) | relative viability (BI-2536 + Olaparib; first compound 0.1 µM) | relative viability (BI-2536 + Olaparib; first compound 0.3162 µM) | relative viability (BI-2536 + Olaparib; first compound 1 µM) | relative viability ([1]; first compound 0.01 µM) | relative viability ([1]; first compound 0.03162 µM) | relative viability ([1]; first compound 0.1 µM) | relative viability ([1]; first compound 0.3162 µM) | relative viability ([1]; first compound 1 µM) | relative viability (BI-2536 + Crizotinib; first compound 0.01 µM) | relative viability (BI-2536 + Crizotinib; first compound 0.03162 µM) | relative viability (BI-2536 + Crizotinib; first compound 0.1 µM) | relative viability (BI-2536 + Crizotinib; first compound 0.3162 µM) | relative viability (BI-2536 + Crizotinib; first compound 1 µM) |
| --- | --- | --- | --- | --- | --- | --- | --- | --- | --- | --- | --- | --- | --- | --- | --- | --- | --- | --- | --- | --- |
| NCI-H1975 | 0.297 | 0.276 | 0.22 | 0.169 | 0.168 | 0.776 | 0.71 | 0.544 | 0.161 | 0.169 | 0.956 | 0.921 | 0.913 | 1.01 | 1.03 | 1.12 | 0.504 | 0.595 | 0.185 | 0.166 |
| CAL-12T | 1.04 | 0.955 | 0.623 | 0.195 | 0.131 | 0.682 | 0.596 | 0.493 | 0.167 | 0.19 | 0.721 | 1.07 | 0.737 | 0.736 | 0.808 | 0.532 | 0.295 | 0.409 | 0.128 | 0.155 |
| HCC-44 | 0.738 | 0.612 | 0.651 | 0.38 | 0.246 | 1.05 | 1 | 0.952 | 0.378 | 0.33 | 0.634 | 0.701 | 0.635 | 0.681 | 0.716 | 0.786 | 0.703 | 0.444 | 0.139 | 0.0857 |
| EKVX | 0.389 | 0.403 | 0.326 | 0.194 | 0.28 | 0.856 | 0.827 | 0.582 | 0.211 | 0.177 | 0.935 | 1.07 | 0.985 | 0.764 | 1.18 | 1.01 | 0.745 | 1.07 | 0.217 | 0.147 |
| NCI-H1651 | 0.613 | 0.583 | 0.511 | 0.139 | 0.0892 | 0.185 | 0.173 | 0.157 | 0.142 | 0.109 | 0.947 | 0.972 | 1.09 | 0.867 | 1.05 | 0.85 | 0.889 | 0.81 | 0.358 | 0.101 |
| NCI-H1944 | 0.631 | 0.649 | 0.425 | 0.18 | 0.142 | 0.385 | 0.389 | 0.297 | 0.164 | 0.147 | 1.16 | 1.09 | 1.21 | 1.06 | 1.28 | 1.14 | 1.3 | 1.21 | 0.184 | 0.147 |
| NCI-H1703 |  |  |  |  |  | 0.426 | 0.315 | 0.209 | 0.102 | 0.111 | 0.428 | 0.65 | 0.621 | 0.645 | 0.996 | 0.626 |  | 0.173 | 0.131 | 0.0732 |
| Calu-6 |  |  |  |  |  | 0.533 | 0.524 | 0.243 | 0.0982 | 0.0892 | 0.981 | 0.912 | 0.897 | 0.948 | 0.946 | 0.713 | 0.4 | 0.273 | 0.113 | 0.102 |
